From US20260306460A1, “COMPOSITION FOR REMOVING AND INHIBITING SENESCENT CELLS, AND USES THEREOF” (LIFECEUTIX CO., LTD., priority 2023, published 2026)

What was measured:
senescent foreskin cells = assay: Survival of senescent human cells treated with supernatant (secreted fluid) from death-induced cells, Example 13; assay type: cell-based; conditions: Table 8; supernatant from dying senescent cells treated at 30, 90 or 270 μM (as Example 11); senescent treated cells
Method: After 3 days, cell viability was measured using CellTiter-Glo Luminescent Cell Viability Assay (Promega) or light microscopy.
During this additional culture, by checking with an optical microscope, etc., the medium supernatants containing secreted fluid from normally proliferating and senescent cells in which cell death was induced were obtained. The obtained medium supernatant was replaced with the medium of normally proliferating and senescent cells, respectively, and cell survival rate was measured after 3 days.

naturally aged mice = assay: Anti-aging evaluation in naturally aged mice, Example 31, Table 55; assay type: in vivo, mouse; conditions: for Femur Ctsk mRNA / Kidney Agtr1a mRNA / Liver IL6 mRNA / Liver MMP3 mRNA / Liver p16 mRNA / Open Field Test Time in Center: untreated = 100%; for Heart Sur2a mRNA / Joint Col2a1 mRNA / Skin Col1a1 mRNA / Skin SDF1 mRNA: untreated = 1.0; for Muscle Mass: untreated 0.64 g; for Fat Mass: untreated 0.82 g; for Cataract incidence: untreated 83%;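 for all read-outs here: Vehicle-dosed control mice received solution alone at matching volume, values compare test-compound-treated aged mice against that control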
Method: After the end of drug administration, the method described in each example below was performed. […] The mRNA amounts of p16, MMP3, and IL6 after natural aging was induced were calculated as 100% and compared with the mRNA amounts of p16, MMP3, and IL6 after treatment with the test compound. In addition, an open field test for the analysis of aging-related frailty, agtr1a mRNA analysis for kidney damage and disease evaluation, col1a1 and SDF1 mRNA analysis for skin aging evaluation such as wrinkles/loss of elasticity/hyperpigmentation, col2a1 mRNA analysis for evaluating joint aging such as osteoarthritis, sur2a mRNA analysis for evaluating cardiac aging such as decreased cardiac load resistance, ctsk mRNA analysis for evaluating bone diseases due to aging such as osteoporosis, muscle tissue weight for analyzing sarcopenia, fat tissue weight for analyzing lipoatrophy, and cataract incidence analysis were performed in mice. For cataract incidence analysis, the drug was administered twice a week under the conditions specified above, and biweekly examinations were conducted until death.

[1] = system: carbon tetrachloride-induced liver fibrosis mice; assay: Carbon tetrachloride-induced liver fibrosis mice, Example 31, Table 57; assay type: in vivo, mouse; conditions: CCl4-induced liver fibrosis mice, untreated = 100%
In short: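 Mice with induced hepatic fibrosis received either the test compound or, as controls, an equal volume of vehicle solution alone. Once dosing ended, liver tissue was harvested and total RNA was isolated. cDNA was synthesized from this RNA, and quantitative RT-PCR was run on it to measure hepatic mRNA levels of the fibrosis- and senescence-related genes.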

[2] = system: HMGN1 secreted from senescent A549 cells; assay: HMGN1 secretion (ELISA) from senescent A549 cancer cells, Example 12; assay type: cell-based, human; conditions: senescent untreated = 100%; 30 μM; 90 μM for LX-305, 905, 1302, 1601, 1603, 2003, 2702, 2901, 3106; 270 μM for LX-1103, 2005, 2007;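 note: A549 cells made senescent by doxorubicin exposure, with DMSO-treated cells serving as the non-senescent control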
Method: Cells were treated with doxorubicin or control (DMSO) and cultured.

[3] = system: bleomycin-induced pulmonary fibrosis mice; assay: Bleomycin-induced pulmonary fibrosis mice, Example 31, Table 56; assay type: in vivo, mouse; conditions: untreated = 100%
In short: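 After treatment with test compound or vehicle alone, lungs of bleomycin-induced pulmonary fibrosis mice were harvested. Total RNA extracted and gene expression quantified by qRT-PCR.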

O=C(NCc1ccncc1)C12CC3CC(C1)CC(c1ccc(Cl)cc1)(C3)C2 [LX-3106, Opaganib]
Survival (senescent foreskin cells): 72.6
Femur Ctsk mRNA (naturally aged mice): 76%
Heart Sur2a mRNA (naturally aged mice): 1.6 fold
Joint Col2a1 mRNA (naturally aged mice): 2.0 fold
Kidney Agtr1a mRNA (naturally aged mice): 83%
Liver IL6 mRNA (naturally aged mice): 71%
Liver MMP3 mRNA (naturally aged mice): 85%
Liver p16 mRNA (naturally aged mice): 76%
Open Field Test Time in Center (naturally aged mice): 193%
Skin Col1a1 mRNA (naturally aged mice): 1.3 Fold
Skin SDF1 mRNA (naturally aged mice): 1.3 fold
Muscle Mass (naturally aged mice): 0.72 g
Fat Mass (naturally aged mice): 0.88 g
Cataract incidence (naturally aged mice): 71%
Liver p16 mRNA [1]: 81 (±6.5) %
Col1a1 mRNA [1]: 71 (±5.4) %
HMGN1 [2]: 236%
Lung p16 mRNA [3]: 67 (±4.3) %
Col1a1 mRNA [3]: 77 (±3.7) %

C[C@H](N)C(=O)N1C[C@H](CCCB(O)O)[C@](N)(C(=O)O)C1 [LX-3107, Numidargistat]
Survival (senescent foreskin cells): 62.1
Femur Ctsk mRNA (naturally aged mice): 81%
Heart Sur2a mRNA (naturally aged mice): 1.7 fold
Joint Col2a1 mRNA (naturally aged mice): 1.1 fold
Kidney Agtr1a mRNA (naturally aged mice): 75%
Liver IL6 mRNA (naturally aged mice): 49%
Liver MMP3 mRNA (naturally aged mice): 68%
Liver p16 mRNA (naturally aged mice): 54%
Open Field Test Time in Center (naturally aged mice): 167%
Skin Col1a1 mRNA (naturally aged mice): 1.2 Fold
Skin SDF1 mRNA (naturally aged mice): 1.4 fold
Muscle Mass (naturally aged mice): 0.67 g
Fat Mass (naturally aged mice): 0.99 g
Cataract incidence (naturally aged mice): 65%
Liver p16 mRNA [1]: 80 (±3.6) %
Col1a1 mRNA [1]: 69 (±8.0) %
HMGN1 [2]: 267%
Lung p16 mRNA [3]: 81 (±3.9) %
Col1a1 mRNA [3]: 68 (±5.1) %

CC(=O)N[C@@H](Cc1c[nH]c2ccccc12)C(=O)N[C@@H](CCC(=O)C=[N+]=[N-])C(=O)OC(C)C [LX-3201, Sirpiglenastat]
Survival (senescent foreskin cells): 55.2
Femur Ctsk mRNA (naturally aged mice): 80%
Heart Sur2a mRNA (naturally aged mice): 2.1 fold
Joint Col2a1 mRNA (naturally aged mice): 1.7 fold
Kidney Agtr1a mRNA (naturally aged mice): 78%
Liver IL6 mRNA (naturally aged mice): 71%
Liver MMP3 mRNA (naturally aged mice): 64%
Liver p16 mRNA (naturally aged mice): 80%
Open Field Test Time in Center (naturally aged mice): 171%
Skin Col1a1 mRNA (naturally aged mice): 1.6 Fold
Skin SDF1 mRNA (naturally aged mice): 2.0 fold
Muscle Mass (naturally aged mice): 0.71 g
Fat Mass (naturally aged mice): 1.06 g
Cataract incidence (naturally aged mice): 76%
Liver p16 mRNA [1]: 71 (±9.4) %
Col1a1 mRNA [1]: 82 (±8.2) %
HMGN1 [2]: 309%
Lung p16 mRNA [3]: 77 (±5.9) %
Col1a1 mRNA [3]: 73 (±3.8) %

Cc1[nH]nc(C(F)(F)F)c1Cc1sc2c(c1C(=O)N1C[C@](C)(O)CO1)c(=O)n(C)c(=O)n2C(C)C [LX-3203]
Survival (senescent foreskin cells): 57.1
Femur Ctsk mRNA (naturally aged mice): 55%
Heart Sur2a mRNA (naturally aged mice): 1.8 fold
Joint Col2a1 mRNA (naturally aged mice): 1.6 fold
Kidney Agtr1a mRNA (naturally aged mice): 68%
Liver IL6 mRNA (naturally aged mice): 67%
Liver MMP3 mRNA (naturally aged mice): 62%
Liver p16 mRNA (naturally aged mice): 66%
Open Field Test Time in Center (naturally aged mice): 183%
Skin Col1a1 mRNA (naturally aged mice): 1.8 Fold
Skin SDF1 mRNA (naturally aged mice): 2.2 fold
Muscle Mass (naturally aged mice): 0.68 g
Fat Mass (naturally aged mice): 0.85 g
Cataract incidence (naturally aged mice): 75%
Liver p16 mRNA [1]: 64 (±4.0) %
Col1a1 mRNA [1]: 66 (±4.5) %
HMGN1 [2]: 293%
Lung p16 mRNA [3]: 69 (±5.0) %
Col1a1 mRNA [3]: 64 (±4.5) %

CCc1nc(C(N)=O)c(Nc2ccc(N3CCC(N4CCN(C)CC4)CC3)c(OC)c2)nc1NC1CCOCC1 [LX-3303, Gilteritinib]
Survival (senescent foreskin cells): 53.5
Femur Ctsk mRNA (naturally aged mice): 76%
Heart Sur2a mRNA (naturally aged mice): 1.9 fold
Joint Col2a1 mRNA (naturally aged mice): 2.1 fold
Kidney Agtr1a mRNA (naturally aged mice): 69%
Liver IL6 mRNA (naturally aged mice): 83%
Liver MMP3 mRNA (naturally aged mice): 73%
Liver p16 mRNA (naturally aged mice): 63%
Open Field Test Time in Center (naturally aged mice): 186%
Skin Col1a1 mRNA (naturally aged mice): 1.2 Fold
Skin SDF1 mRNA (naturally aged mice): 1.7 fold
Muscle Mass (naturally aged mice): 0.72 g
Fat Mass (naturally aged mice): 1.08 g
Cataract incidence (naturally aged mice): 61%
Liver p16 mRNA [1]: 62 (±4.9) %
Col1a1 mRNA [1]: 65 (±6.2) %
HMGN1 [2]: 239%
Lung p16 mRNA [3]: 68 (±6.9) %
Col1a1 mRNA [3]: 78 (±5.1) %
